Reference: the NIST ThermoML archive (doi:10.1016/j.jct.2019.03.035)

Assay: refractive index (other wavelength) (dimensionless); xn = mol fraction of the nth substance listed
Settings: 288.62 K, 100 kPa, Liquid, Wavelength=632.8 nm, minimum deviation angle technique

N#Cc1ccccc1 [benzonitrile] + CCCCCCCCCC
Settings | refractive index
x1 = 0.112 | 1.4196
x1 = 0.188 | 1.4249
x1 = 0.34 | 1.4371
x1 = 0.396 | 1.4422
x1 = 0.49 | 1.4514
x1 = 0.608 | 1.4647
x1 = 0.702 | 1.4771
x1 = 0.821 | 1.4952
x1 = 0.912 | 1.5105
x1 = 1 | 1.5277
